Values joined by “and” are separate entries in the source; they are usually repeats but may differ in a detail not shown here. Equal values may be shown once. Toxic doses and inconclusive results are not listed. Rule for the calls: active = survival T/C of 150% or more; inactive = T/C below 125% in these data. Square brackets hold non-standard residues; d marks the D form. Peptide text beside a SMILES is read from it. ξ: configuration not given here. ξQ = NC(=O)CCC(N)C(=O)O
Test system: P388 leukemia ip, CD2F1 mice, survival T/C
Test: NCI In Vivo Anticancer Drug Screen. Data for tumor model P388 Leukemia (intraperitoneal) in CD2F1 (CDF1) mice
Details: endpoint: median survival time, higher = longer survival
Summary of the method: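 Mice carrying the transplanted tumor received test compound or vehicle. Survival was recorded in each group, and the value is the treated-group measurement divided by that of the vehicle-treated control group.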

[1] = dose: 50.0 mg/kg/injection, schedule: Q01DX005 (ip), vehicle: saline with Tween-80
[2] = dose: 100.0 mg/kg/injection, schedule: Q01DX005 (ip), vehicle: saline with Tween-80
[3] = dose: 200.0 mg/kg/injection, schedule: Q01DX005 (ip), vehicle: saline with Tween-80
[4] = dose: 25.0 mg/kg/injection, schedule: Q01DX009 (ip), vehicle: saline with Tween-80
[5] = dose: 50.0 mg/kg/injection, schedule: Q01DX009 (ip), vehicle: saline with Tween-80
[6] = dose: 50.0 mg/kg/injection, schedule: Q01DX005 (ip), vehicle: Klucel (hydroxypropylcellulose) (HPC)
[7] = dose: 100.0 mg/kg/injection, schedule: Q01DX005 (ip), vehicle: Klucel (hydroxypropylcellulose) (HPC)
[8] = dose: 200.0 mg/kg/injection, schedule: Q01DX005 (ip), vehicle: Klucel (hydroxypropylcellulose) (HPC)
[9] = dose: 100.0 mg/kg/injection, schedule: Q04DX003 (ip), vehicle: saline with Tween-80
[10] = dose: 200.0 mg/kg/injection, schedule: Q04DX003 (ip), vehicle: saline with Tween-80
[11] = dose: 400.0 mg/kg/injection, schedule: Q04DX003 (ip), vehicle: saline with Tween-80
[12] = dose: 100.0 mg/kg/injection, schedule: Q01DX009 (ip), vehicle: saline with Tween-80
[13] = dose: 200.0 mg/kg/injection, schedule: Q01DX009 (ip), vehicle: saline with Tween-80
[14] = dose: 50.0 mg/kg/injection, schedule: Q01DX009 (ip), vehicle: saline
[15] = dose: 100.0 mg/kg/injection, schedule: Q01DX009 (ip), vehicle: saline
[16] = dose: 200.0 mg/kg/injection, schedule: Q01DX009 (ip), vehicle: saline
[17] = dose: 60.0 mg/kg/injection, schedule: Q01DX005 (ip), vehicle: saline with Tween-80
[18] = dose: 120.0 mg/kg/injection, schedule: Q01DX005 (ip), vehicle: saline with Tween-80
[19] = dose: 240.0 mg/kg/injection, schedule: Q01DX005 (ip), vehicle: saline with Tween-80

Measured: T/C

c1ccc(CCc2cccc3ccccc23)nc1
inactive: [1] 98 % of control | [2] 96 % of control | [3] 100 % of control

CC(C)CNc1ccc(S(=O)(=O)c2ccc(NCC(C)C)c([N+](=O)[O-])c2)cc1[N+](=O)[O-]
inactive: dose: 6.25 mg/kg/injection, schedule: Q01DX009 (ip), vehicle: saline with Tween-80 98 % of control | dose: 12.5 mg/kg/injection, schedule: Q01DX009 (ip), vehicle: saline with Tween-80 92 % of control | [4] 87 % of control | [5] 93 % of control

CC(C)(C)OC(=O)NC(CSCc1ccccc1)C(=O)ON1C(=O)CCC1=O (stereo not drawn)
inactive: [6] 100 % of control | [7] 98 % of control | [8] 94 % of control

O=[N+]([O-])c1cccc2c1ccc1nonc12
inactive: [1] 99 % of control | [2] 94 % of control | [3] 97 % of control

COC(/C=N/OC(=O)c1ccccc1)c1ccccc1 (stereo not drawn)
inactive: dose: 25.0 mg/kg/injection, schedule: Q04DX003 (ip), vehicle: saline with Tween-80 98 % of control and 90 % of control | dose: 50.0 mg/kg/injection, schedule: Q04DX003 (ip), vehicle: saline with Tween-80 92 % of control

CCOc1ccc(OCC)c(NC(=O)c2ccccc2)c1
inactive: [9] 100 % of control | [10] 95 % of control | [11] 95 % of control

CCCCCC(=O)C1C(c2ccc(C)cc2)CC(=O)C(CCCC)C1c1ccc(C)cc1 (stereo not drawn)
inactive: [1] 93 % of control | [2] 93 % of control | [3] 93 % of control

NC(=O)Nc1n[nH]c(-c2ccccc2)n1
inactive: [9] 90 % of control | [10] 90 % of control | [11] 90 % of control

c1ccc2c(Cc3nn[nH]n3)noc2c1
inactive: [5] 109 % of control | [12] 107 % of control | [13] 100 % of control

NCCCNCCCNc1nc2nc(N)nc(N)c2nc1-c1ccc([N+](=O)[O-])cc1
inactive: dose: 6.25 mg/kg/injection, schedule: Q01DX005 (ip), vehicle: saline with Tween-80 99 % of control | dose: 12.5 mg/kg/injection, schedule: Q01DX005 (ip), vehicle: saline with Tween-80 101 % of control | dose: 25.0 mg/kg/injection, schedule: Q01DX005 (ip), vehicle: saline with Tween-80 105 % of control | [1] 97 % of control

CCCCCCCCOC(=O)c1ccc(I)cc1
inactive: [5] 97 % of control | [12] 101 % of control | [13] 97 % of control

O=[N+]([O-])c1ccc(CSC(=S)Nc2ccc(Cl)c(Cl)c2)cc1
inactive: [4] 106 % of control | dose: 25.0 mg/kg/injection, schedule: Q01DX009 (ip), vehicle: saline 109 % of control | [5] 114 % of control | [14] 107 % of control | dose: 50.0 mg/kg/injection, schedule: Q01DX009 (ip), vehicle: suspension in saline 103 % of control | [12] 115 % of control | [15] 109 % of control | dose: 100.0 mg/kg/injection, schedule: Q01DX009 (ip), vehicle: suspension in saline 113 % of control | [13] 97 % of control | [16] 116 % of control | dose: 200.0 mg/kg/injection, schedule: Q01DX009 (ip), vehicle: suspension in saline 115 % of control

CC(C)(O)c1cc(=O)n(Cc2ccccc2)[nH]1
inactive: [6] 106 % of control | [7] 109 % of control | [8] 108 % of control

Cc1ccc(N=C(Cl)Nc2ccc(C)cc2)cc1
inactive: [5] 105 % of control | [12] 108 % of control | [13] 98 % of control

CCOC(=O)C1CCc2c(OC)c(C)cc(C)c2C1=O (stereo not drawn)
inactive: [6] 103 % of control | [7] 103 % of control | [8] 95 % of control

CC(=NCCN=C(C)c1ccccc1O)c1ccccc1O.[Cu]
inactive: [5] 105 % of control | [12] 99 % of control | [13] 89 % of control

COc1cc(OC)c2c(=O)c3cccc([N+](=O)[O-])c3n(C)c2c1
inactive: dose: 100.0 mg/kg/injection, schedule: Q01DX001 (ip), vehicle: saline with Tween-80 104 % of control | dose: 200.0 mg/kg/injection, schedule: Q01DX001 (ip), vehicle: saline with Tween-80 100 % of control | dose: 400.0 mg/kg/injection, schedule: Q01DX001 (ip), vehicle: saline with Tween-80 98 % of control

O=C1N[C@@H]2C(=C[C@H](O)[C@@H](O)[C@H]2O)c2cc3c(c(O)c21)OCO3
inactive: dose: 0.62 mg/kg/injection, schedule: Q01DX009 (ip), vehicle: saline with Tween-80 110 % of control | dose: 5.0 mg/kg/injection, schedule: Q01DX009 (ip), vehicle: saline with Tween-80 100 % of control | dose: 10.0 mg/kg/injection, schedule: Q01DX009 (ip), vehicle: saline with Tween-80 87 % of control

COC(=O)CCSCc1ccccc1
inactive: dose: 60.0 mg/kg/injection, schedule: Q01DX005 (ip), vehicle: saline 100 % of control | dose: 120.0 mg/kg/injection, schedule: Q01DX005 (ip), vehicle: saline 100 % of control | dose: 240.0 mg/kg/injection, schedule: Q01DX005 (ip), vehicle: saline 109 % of control

CCOC(=O)c1nc(C)[nH]c(=O)c1C
inactive: dose: 8.0 mg/kg/injection, schedule: Q01DX009 (ip), vehicle: water 100 % of control | dose: 16.0 mg/kg/injection, schedule: Q01DX009 (ip), vehicle: water 95 % of control | dose: 32.0 mg/kg/injection, schedule: Q01DX009 (ip), vehicle: water 100 % of control | dose: 64.0 mg/kg/injection, schedule: Q01DX009 (ip), vehicle: water 100 % of control | dose: 128.0 mg/kg/injection, schedule: Q01DX009 (ip), vehicle: water 98 % of control

COc1cc(CCNC(C)=O)c(NC=O)cc1OC
inactive: dose: 100.0 mg/kg/injection, schedule: Q04DX002 (ip), vehicle: saline 108 % of control | dose: 200.0 mg/kg/injection, schedule: Q04DX002 (ip), vehicle: saline 105 % of control | dose: 400.0 mg/kg/injection, schedule: Q04DX002 (ip), vehicle: saline 99 % of control

NC(=O)CCC(N)C(=O)NCC(=O)O (stereo not drawn) (H-[ξQ]-Gly-OH)
inactive: dose: 12.5 mg/kg/injection, schedule: Q01DX005 (ip), vehicle: distilled water + Tween-80 106 % of control | dose: 25.0 mg/kg/injection, schedule: Q01DX005 (ip), vehicle: distilled water + Tween-80 109 % of control | dose: 50.0 mg/kg/injection, schedule: Q01DX005 (ip), vehicle: distilled water + Tween-80 104 % of control | dose: 100.0 mg/kg/injection, schedule: Q01DX005 (ip), vehicle: distilled water + Tween-80 109 % of control | dose: 200.0 mg/kg/injection, schedule: Q01DX005 (ip), vehicle: distilled water + Tween-80 113 % of control

OCC1OC(n2cnc3c(SCc4ccccc4)ncnc32)C(O)C1O (stereo not drawn)
inactive: dose: 88.0 mg/kg/injection, schedule: Q01DX009 (ip), vehicle: saline with Tween-80 100 % of control | dose: 132.0 mg/kg/injection, schedule: Q01DX009 (ip), vehicle: saline with Tween-80 95 % of control | [13] 86 % of control

CCN(CC)/C(N)=N/O
inactive: dose: 2.5 mg/kg/injection, schedule: Q01DX009 (ip), vehicle: saline 95 % of control | dose: 5.0 mg/kg/injection, schedule: Q01DX009 (ip), vehicle: saline 104 % of control | dose: 10.0 mg/kg/injection, schedule: Q01DX009 (ip), vehicle: saline 102 % of control

COc1ccccc1C(=O)Nc1c(C)cccc1Cl
inactive: [17] 100 % of control | [18] 103 % of control | [19] 94 % of control

C/C=C\C=C/NC(=O)N1CCCC1
inactive: [17] 113 % of control | [18] 118 % of control | [19] 116 % of control

Clc1ccccc1C(c1ccccc1)(c1ccccc1)n1ccnc1
inactive: [14] 113 % of control | [15] 113 % of control | [16] 113 % of control

Nc1cnc2nc(N)[nH]c(=O)c2c1
inactive: dose: 100.0 mg/kg/injection, schedule: Q01DX009 (ip), vehicle: saline sonified 120 % of control | dose: 200.0 mg/kg/injection, schedule: Q01DX009 (ip), vehicle: saline sonified 110 % of control | dose: 400.0 mg/kg/injection, schedule: Q01DX009 (ip), vehicle: saline sonified 105 % of control

CN1CSC(=S)NCCNC(=S)SC1
inactive: [6] 87 % of control | [7] 94 % of control | [8] 87 % of control

O=C1CCCC12CCCC2=O
inactive: [5] 103 % of control | [12] 100 % of control | [13] 109 % of control
